Assay results from patent US4026888A, “Certain derivatives of particular 3-thiolated cephalosporins” (priority 1976, dated 1977).
Converted amounts (≈) assume the structure as drawn. Where two headings read alike, the source gives them in different places.

What was measured:
Str. pneumoniae A9585 = experiment: Antibiotic activity in nutrient broth (MIC); type: cell-based; conditions: Streptococcus pneumoniae, A9585, inoculum 10^-3 dilution of overnight broth culture; 45% AAB + 5% serum + 50% broth; derivatives adjusted for BL-S640 content
From the text: (§1) Antibiotic Activity In Nutrient Broth
(§2) * 45% AAB+ 5% serum+ 50% broth listed above.
(§3) ** Dilution of overnight broth culture.
(§4) Antibiotic Spectrum Nutrient Broth
(§5) * 45% AAB + 5% serum + 50% broth
(§6) Antibiotic Spectrum in Nutrient Broth
(§7) *45% AAB + 5% serum + 50% broth listed above.

Str. pyogenes A9604 = experiment: Antibiotic activity in nutrient broth (MIC); type: cell-based; conditions: Streptococcus pyogenes, A9604, inoculum 10^-3; 45% AAB + 5% serum + 50% broth; derivatives adjusted for BL-S640 content; read-out: MIC
From the text: as §1, §2, §3, §4, §5, §6, §7

E. coli A9675 = experiment: Antibiotic activity in nutrient broth (MIC); type: cell-based; conditions: Escherichia coli, A9675, inoculum 10^-4; derivatives adjusted for BL-S640 content; read-out: MIC
From the text: as §1, §3, §4, §6

Ent. cloacae A9656 = experiment: Antibiotic activity in nutrient broth (MIC); type: cell-based; conditions: Enterobacter cloacae, A9656, inoculum 10^-4; derivatives adjusted for BL-S640 content
From the text: as §1, §3, §4, §6

Ent. cloacae A9659 = experiment: Antibiotic activity in nutrient broth (MIC); type: cell-based; conditions: Enterobacter cloacae, A9659, inoculum 10^-4; derivatives adjusted for BL-S640 content; read-out: MIC
From the text: as §1, §3, §4, §6

K. pneumoniae A15130 = experiment: Antibiotic activity in nutrient broth (MIC); type: cell-based; conditions: Klebsiella pneumoniae, A15130, inoculum 10^-4; derivatives adjusted for BL-S640 content; read-out: MIC
From the text: as §1, §3, §4, §6

K. pneumoniae A9977 = experiment: Antibiotic activity in nutrient broth (MIC); type: cell-based; conditions: Klebsiella pneumoniae, inoculum 10^-4, derivatives adjusted for BL-S640 content, read-out: MIC
From the text: as §1, §3, §4, §6

Pr. morganii A15153 = experiment: Antibiotic activity in nutrient broth (MIC); type: cell-based; conditions: Morganella morganii, A15153, inoculum 10^-4; derivatives adjusted for BL-S640 content; read-out: MIC
From the text: as §1, §3, §4, §6

Ps. aeruginosa A9843A = experiment: Antibiotic activity in nutrient broth (MIC); type: cell-based; conditions: Pseudomonas aeruginosa
From the text: as §1, §3, §4, §6

[1] = test system: S. aureus Meth-Res A15097; experiment: Antibiotic activity in nutrient broth (MIC); type: cell-based; conditions: inoculum 10^-3, Meth-Res, derivatives adjusted for BL-S640 content
From the text: as §1, §3, §4, §6

Sal. enteritidis A9531 = experiment: Antibiotic activity in nutrient broth (MIC); type: cell-based; conditions: Salmonella enterica, ENTERITIDIS, inoculum 10^-4; derivatives adjusted for BL-S640 content; read-out: MIC
From the text: as §1, §3, §4, §6

[2] = Mouse blood levels after oral administration; type: in vivo; conditions: for Blood Level: listed as Compound of Ex. 1, 100 mg/kg; for concentration at 0.5 h / concentration at 1 h / concentration at 2 h / concentration at 3.5 h: mouse, blood, po, 100 mg/kg
Experimental: Mouse Blood Levels After Oral
Administration Of 100 mg./kg. Body Weight
The compounds were prepared in
Tween - carboxymethylcellulose
and 8 mice were used for each
Mouse Blood Levels After PO
Administration of 100 mg./kg. Body Weight
The compounds were prepared in Tween-CMC. BL-S640
The compounds were prepared in Tween-CMC. Values are the average of two

[3] = Mouse blood levels after intramuscular administration; type: in vivo; conditions: for concentration at 0.25 h / concentration at 0.5 h / concentration at 1 h / concentration at 1.5 h: mouse, blood, im, 10 mg/kg, IM 10 mg./kg., 0.01% phosphate buffer
Experimental: Mouse Blood Levels After Intramuscular Administration
of 10 mg./kg. Body Weight
The compounds were dissolved in 0.01% phosphate buffer.
Mouse Blood Levels After IM
Administration of 10 mg./kg. Body Weight
The compounds were prepared in 0.01% phosphate
(§8) The compounds were prepared in 0.01% phosphate buffer.

[4] = Urinary recovery after IM administration to rats; type: in vivo; conditions: rat, urine, read-out: Urinary Recovery, Percentage of Administered Dose Recovered; for dose excreted at 6 h: 0-6 hr
Experimental: Urinary Recovery After IM
Administration of 50 and 10 mg./kg. to Rats
The compounds were prepared in 0.01% phosphate buffer. BL-S640 was used as
Urinary Recovery after IM
Administration of 50 mg./kg. to Rats
as §8

[5] = Paper chromatography of rat urine for antibiotically active metabolites; type: in vivo; conditions: IM; rat urine 0-2 and 2-4 hours
Experimental: Paper chromatograms were run on rat urine collected between 0 and 2 and between 2 and 4 hours following IM administration of BL-S1055 and 640, for the detection of antibiotically active metabolites using descending chromatography with system No. 9 (butyl acetate:n-butanol:glacial acetic acid:H2 O= 80:15:40:24).

P. mirabilis A9707 = experiment: Oral PD50 in mice; type: in vivo; conditions: Proteus mirabilis, mice treated at 1 and 3.5 hours post-challenge
Experimental: Comparative Oral PD50 Values of
(§9) BL-S640 Derivatives in Mice
*Mice were treated at 1 and 3.5 hours post-challenge.

P. mirabilis A9900 [6] = experiment: Oral PD50 in mice; type: in vivo; conditions: Proteus mirabilis, A9900, po, 3.5 h, oral; mice treated at 1 and 3.5 hours post-challenge; read-out: PD50
P. mirabilis A9900 [7] = experiment: IM PD50 in mice; type: in vivo; conditions: Proteus mirabilis
From the text: Comparative IM PD50 Values of
as §9

[8] = Example 2, 16 or 32 mice, read-out: Blood Levels
[9] = Table III, read-out: Mouse Blood Levels

O=C(O)C1=C(CSc2cnn[nH]2)CS[C@@H]2[C@H](N3C(=O)[C@@H](c4ccc(O)cc4)NC3c3ccc(S(=O)(=O)O)o3)C(=O)N12 (stereo partly shown) [BL-S1027]
MIC (Str. pneumoniae A9585): 0.03 µg/mL
MIC (Str. pyogenes A9604): 0.03 µg/mL
MIC (E. coli A9675): 4 µg/mL (≈ 6.44 µM)
MIC (Ent. cloacae A9656): > 125 µg/mL
MIC (Ent. cloacae A9659): 32 µg/mL (≈ 51.6 µM)
MIC (K. pneumoniae A15130): 1 µg/mL (≈ 1.61 µM)
MIC (K. pneumoniae A9977): 0.5 µg/mL (≈ 0.806 µM)
MIC (Pr. morganii A15153): 32 µg/mL (≈ 51.6 µM)
MIC (Ps. aeruginosa A9843A): > 125 µg/mL
MIC ([1]; Staphylococcus aureus, read-out: MIC): 4 to 8 µg/mL (≈ 6.44 to 12.9 µM)
MIC [1]: 4 µg/mL (≈ 6.44 µM)
MIC (Sal. enteritidis A9531): 0.25 µg/mL (≈ 0.403 µM)
Blood Level ([2]; Table II, oral 100 mg./kg., 0.5 hr, Tween-carboxymethylcellulose, 8 mice, 30 min): 54600 ng/mL
Blood Level ([2]; Table II, oral 100 mg./kg., 1 hr, Tween-carboxymethylcellulose, 8 mice, 60 min): 53500 ng/mL
Blood Level ([2]; Table II, oral 100 mg./kg., 2 hr, Tween-carboxymethylcellulose, 8 mice, 120 min): 27600 ng/mL
Blood Level ([2]; Table II, oral 100 mg./kg., 3.5 hr, Tween-carboxymethylcellulose, 8 mice, 210 min): 8200 ng/mL
concentration at 0.5 h ([2]; Example 2, PO 100 mg./kg., 0.5 hr, Tween-CMC, 16 or 32 mice, read-out: Blood Levels): 49800 ng/mL
concentration at 1 h ([2]; Example 2, PO 100 mg./kg., 1 hr, Tween-CMC, 16 or 32 mice, read-out: Blood Levels): 45100 ng/mL
concentration at 2 h ([2]; Example 2, PO 100 mg./kg., 2 hr, Tween-CMC, 16 or 32 mice, read-out: Blood Levels): 24000 ng/mL
concentration at 3.5 h ([2]; Example 2, PO 100 mg./kg., 3.5 hr, Tween-CMC, 16 or 32 mice, read-out: Blood Levels): 9300 ng/mL
concentration at 0.5 h ([2]; Table II, oral 100 mg./kg., 0.5 hr, Tween-carboxymethylcellulose, 8 mice, read-out: Blood Level): 45000 ng/mL
concentration at 1 h ([2]; Table II, oral 100 mg./kg., 1 hr, Tween-carboxymethylcellulose, 8 mice, read-out: Blood Level): 36600 ng/mL
concentration at 2 h ([2]; Table II, oral 100 mg./kg., 2 hr, Tween-carboxymethylcellulose, 8 mice, read-out: Blood Level): 20400 ng/mL
concentration at 3.5 h ([2]; Table II, oral 100 mg./kg., 3.5 hr, Tween-carboxymethylcellulose, 8 mice, read-out: Blood Level): 10400 ng/mL
Mouse blood levels, oral, compared with BL-S640 propylene glycol adduct ([2]; oral, in words): approximately equal
Mouse blood levels, intramuscular, compared with BL-S640 propylene glycol adduct ([3]; intramuscular, in words): approximately equal
concentration at 0.25 h [3, 8]: 15400 ng/mL
concentration at 0.5 h [3, 8]: 15100 ng/mL
concentration at 1 h [3, 8]: 11800 ng/mL
concentration at 1.5 h [3, 8]: 8200 ng/mL
concentration at 0.25 h [3, 9]: 16100 ng/mL
concentration at 0.5 h [3, 9]: 14800 ng/mL
concentration at 1 h [3, 9]: 11900 ng/mL
concentration at 1.5 h [3, 9]: 8000 ng/mL
dose excreted at 6 h ([4]; 10 mg/kg, IM 10 mg./kg.): 30.1%
dose excreted at 24 h ([4]; 10 mg/kg, IM 10 mg./kg., 0-24 hr): 31.8%
dose excreted at 24 h ([4]; 10 mg/kg, IM 10 mg./kg., 6-24 hr): 1.7%
dose excreted at 6 h ([4]; 50 mg/kg, IM 50 mg./kg.): 39.6%
dose excreted at 24 h ([4]; 50 mg/kg, IM 50 mg./kg., 0-24 hr): 42.2%
dose excreted at 24 h ([4]; 50 mg/kg, IM 50 mg./kg., 6-24 hr): 2.6%
Hydrolysis to the parent compound (BL-S640) [5]: complete hydrolysis
ED50 (P. mirabilis A9707): 1.8 mg/kg
ED50 (P. mirabilis A9900 [6]): 6.3 mg/kg
ED50 (P. mirabilis A9900 [7]): 1.6 mg/kg
free BL-S640 by liquid chromatography (1 mg./ml. in pH 7 phosphate buffer, 0 time): 85%
Form in solution by paper strip and liquid chromatography (0.2 and 1.0 mg./ml. in water): exists as free BL-S640
